# Measurements from patent US9725436B2, “Cytochrome P450 inhibitors and their method of use” (CORTENDO AB (PUBL), priority 2013, dated 2017).
# Tests used:
# [1] = target: recombinant CYP-17 (Homo sapiens (Human), UniProt P05093); assay: Cyp17 assay protocol (3H-acetic acid release from [21-3H] 17α-hydroxyl-Pregnenolone); assay type: cell-based; settings: AD293 cells over-expressing recombinant CYP-17
# Procedure: Cyp17 assay protocol: AD293 cells that stably over-express recombinant CYP-17 were seeded in 96 well plates coated with poly D-lysine (15,000 cell per well) and incubated at 37° C. for 24 hours in Dulbecco's Modified Eagle Medium (DMEM) with Fetal Bovine Serum (FBS) that is stripped of hormones by charcoal treatment. The media is then removed, the cells are washed once with Phosphate buffer saline solution, and 50 μL Dulbecco's Modified Eagle Medium (DMEM) with Fetal Bovine Serum (FBS) that is stripped of hormones by charcoal treatment is added. Compounds of the disclosure are then added to the wells in eight concentration spanning 10 μM to 4.5 nM, and the plates are incubated for an additional 60 minutes at 37° C. [21-^3H] 17α-hydroxyl-Pregnenolone is then added (50 nCi per well, 31.25 nM) and the plates are incubated for an additional 4 hours at 37° C. The media is then collected, 200 μL of chloroform is added, and the mixture is shaken for 1 hour. The aqueous layer is then separated and analyzed for the presence of ^3H-acetic acid using a Perkin Elmer Topcount NXT to determine IC50s of the compounds of the disclosure.
# [2] = target: recombinant CYP-21 (Homo sapiens (Human), UniProt P08686); assay: Cyp21 assay protocol (11-deoxycortisol formation from 17α-OH Progesterone, LC/MS); assay type: cell-based; settings: AD293 cells over-expressing recombinant CYP-21
# Procedure: (§1) Cyp21 assay protocol: AD293 cells that stably over-express recombinant CYP-21 were seeded in 96 well plates coated with poly D-lysine (10,000 cell per well) and incubated at 37° C. for 24 hours in Dulbecco's Modified Eagle Medium (DMEM) with Fetal Bovine Serum (FBS) that is stripped of hormones by charcoal treatment. The media is then removed, the cells are washed once with Phosphate buffer saline solution, and 50 μL Dulbecco's Modified Eagle Medium (DMEM) with Fetal Bovine Serum (FBS) that is stripped of hormones by charcoal treatment is added. Compounds of the disclosure are then added to the wells in eight concentration spanning 10 μM to 4.5 nM, and the plates are incubated for an additional 60 minutes at 37° C. 17α-OH Progesterone is then added (1.0 μM) and the plates are incubated for an additional 45 minutes at 37° C. After incubation, 50 uL of the supernatant (medium) is transferred into a fresh plate and 150 uL of an acetonitrile solution containing 200 ng/ml of Telmisartan is added.
# [3] = target: recombinant CYP-11 (Homo sapiens (Human), UniProt P15538); assay: Cyp11 assay protocol (cortisol formation from 11-deoxycortisol, LC/MS); assay type: cell-based; settings: AD293 cells over-expressing recombinant CYP-11
# Procedure: as §1, with “Cyp11” for “Cyp21”, “CYP-11” for “CYP-21”, “(15,000” for “(10,000”, “11-deoxycortisol” for “17α-OH Progesterone”, “(2.0” for “(1.0”, “12 hours” for “45 minutes”
# [4] = Pharmacokinetic study in the guinea pig, 10 mg/kg oral dosing; assay type: in vivo; set-up: DNAUC(0-inf): unit not given beside the values; settings: for DNAUC(0-inf): dose-normalised AUC; for AUC(0-inf) / Cmax / half-life / AUC / MRT: in vivo; for AUC: read-out: AUC0_last; for MRT: read-out: MRT0_last
# Procedure: Pharmacokinetic studies in the guinea pig were run using 1 mg/kg IV dosing (20% DMA, 40% TEG, 40% water) and 10 mg/kg oral dosing (2% Tween-80, 98% HPMC (1% water)).
# Chain of recombinant CYP-11 (P15538 25-503): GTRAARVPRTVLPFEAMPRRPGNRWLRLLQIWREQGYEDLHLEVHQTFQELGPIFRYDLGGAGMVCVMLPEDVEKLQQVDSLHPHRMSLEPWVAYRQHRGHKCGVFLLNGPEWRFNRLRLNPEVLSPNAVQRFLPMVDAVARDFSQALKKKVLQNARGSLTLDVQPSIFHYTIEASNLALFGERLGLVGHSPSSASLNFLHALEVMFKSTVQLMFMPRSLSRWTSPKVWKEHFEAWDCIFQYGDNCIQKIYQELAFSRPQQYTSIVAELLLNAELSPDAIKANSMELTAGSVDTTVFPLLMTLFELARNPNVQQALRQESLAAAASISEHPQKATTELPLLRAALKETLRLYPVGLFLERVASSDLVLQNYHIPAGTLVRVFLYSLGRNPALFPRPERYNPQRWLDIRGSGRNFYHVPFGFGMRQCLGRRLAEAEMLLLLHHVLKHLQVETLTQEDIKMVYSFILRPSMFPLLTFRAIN
# Chain of recombinant CYP-21 (P08686 whole entry, species assumed): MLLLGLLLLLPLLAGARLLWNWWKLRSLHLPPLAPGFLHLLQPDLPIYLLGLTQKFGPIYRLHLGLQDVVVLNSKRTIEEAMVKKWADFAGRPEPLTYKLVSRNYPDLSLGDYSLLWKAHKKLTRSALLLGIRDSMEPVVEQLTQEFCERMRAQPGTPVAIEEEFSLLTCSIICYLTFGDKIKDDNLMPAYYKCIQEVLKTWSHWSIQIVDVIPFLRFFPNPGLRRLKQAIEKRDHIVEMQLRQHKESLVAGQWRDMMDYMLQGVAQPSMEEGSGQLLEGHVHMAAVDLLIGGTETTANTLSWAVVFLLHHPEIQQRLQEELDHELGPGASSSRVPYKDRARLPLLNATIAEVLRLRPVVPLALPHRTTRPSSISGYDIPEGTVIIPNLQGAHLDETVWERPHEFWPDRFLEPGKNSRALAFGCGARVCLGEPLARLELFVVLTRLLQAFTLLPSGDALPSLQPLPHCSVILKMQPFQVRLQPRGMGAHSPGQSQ
# Chain of recombinant CYP-17 (P05093 whole entry, species assumed): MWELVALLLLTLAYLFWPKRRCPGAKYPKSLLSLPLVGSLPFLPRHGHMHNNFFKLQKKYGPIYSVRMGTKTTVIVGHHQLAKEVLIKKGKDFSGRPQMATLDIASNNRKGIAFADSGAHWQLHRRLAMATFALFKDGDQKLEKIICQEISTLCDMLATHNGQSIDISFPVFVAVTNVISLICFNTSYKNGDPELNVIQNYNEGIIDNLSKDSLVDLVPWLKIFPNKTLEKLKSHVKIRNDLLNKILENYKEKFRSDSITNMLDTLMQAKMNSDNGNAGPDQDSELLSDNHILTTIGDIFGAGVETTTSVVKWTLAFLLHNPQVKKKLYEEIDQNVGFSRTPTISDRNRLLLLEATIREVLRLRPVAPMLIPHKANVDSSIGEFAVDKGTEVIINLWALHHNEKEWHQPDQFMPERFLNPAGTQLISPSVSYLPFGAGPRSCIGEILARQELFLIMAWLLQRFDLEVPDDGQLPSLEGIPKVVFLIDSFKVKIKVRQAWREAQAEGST
Compound,IC50 [1],IC50 [2],IC50 [3],other results
N#Cc1cccc(CN2CCN(c3ccc(/C=C/c4cc(Cl)cc(Cn5ccnc5)c4)cc3)CC2)c1 [Example 23],25 nM,285 nM,7 nM,
O=S(=O)(C1CC1)N1CCN(c2ccc(/C=C/c3cc(F)cc(-c4ccncc4)c3)cc2)CC1 [Example 35],5 nM,393 nM,140 nM,
CC(=O)N1CCN(c2ccc(/C=C/c3cc(Cl)cc(-c4ccncc4)c3)cc2)CC1 [Example 31],5 nM,1100 nM,,
CC(=O)N1CCN(c2ccc(/C=C/c3cc(F)cc(-c4cccnc4)c3)cc2)CC1 [Example 27],610 nM,,,
O=C(C1CC1)N1CCN(c2ccc(/C=C/c3cc(Cl)cc(Cn4ccnc4)c3)cc2)CC1 [Example 22],48 nM,1400 nM,19 nM,
O=S(=O)(N1CCN(c2ccc(/C=C/c3cc(F)cc(-c4ccncc4)c3)cc2)CC1)C(F)(F)F [drawing 726],,,,AUCExtra [4]: 25.87%; DNAUC(0-inf) [4]: 164.6; AUC(0-inf) [4]: 2450 ng·h/mL; Cmax [4]: 271 ng/mL; half-life [4]: 5.3 h; AUC [4]: 1650 ng·h/mL; MRT [4]: 5.01 h
N#Cc1cccc(C(=O)N2CCN(c3ccc(/C=C/c4cc(Cl)cc(Cn5ccnc5)c4)cc3)CC2)c1 [Example 18],22 nM,,4 nM,
CC(C)=C(c1cccnc1)c1cc(Cl)cc(/C=C/c2ccc(-c3ccncc3)cc2)c1 [Example 46],300 nM,,,
CC(C)S(=O)(=O)N1CCN(c2ccc(/C=C/c3cc(F)cc(-c4ccncc4)c3)cc2)CC1 [Example 40],1 nM,190 nM,,
CC(=O)N1CCN(c2ccc(/C=C/c3cc(Cl)cc(C(=C(C)C)c4cccnc4)c3)cc2)CC1 [Example 30],210 nM,2400 nM,1800 nM,
O=S(=O)(C1CC1)N1CCN(c2ccc(/C=C/c3cc(F)cc(-c4ccncc4)c3)cc2)CC1 [drawing 724],,,,DNAUC(0-inf) [4]: 160; Cmax [4]: 172 ng/mL; AUC [4]: 1600 ng·h/mL; MRT [4]: 7 h
CC(=O)N1CCN(c2ccc(/C=C/c3cc(Cl)cc(Cc4cccnc4)c3)cc2)CC1 [Example 28],35 nM,,180 nM,
Fc1cc(CCc2ccc(-c3ccncc3)cc2)cc(-c2ccncc2)c1 [Example 37],190 nM,490 nM,,
CCOC(=O)CNC(=O)N1CCN(c2ccc(CCc3cc(F)cc(-c4ccncc4)c3)cc2)CC1 [Example 43],7 nM,,160 nM,
CCS(=O)(=O)N1CCN(c2ccc(/C=C/c3cc(F)cc(-c4ccncc4)c3)cc2)CC1 [drawing 725],,,,AUCExtra [4]: 18.25%; DNAUC(0-inf) [4]: 330.1; AUC(0-inf) [4]: 4190 ng·h/mL; Cmax [4]: 540 ng/mL; half-life [4]: 4.8 h; AUC [4]: 3300 ng·h/mL; MRT [4]: 5.54 h
CCOC(=O)CNC(=O)NC1CCN(c2ccc(/C=C/c3cc(Cl)cc(Cn4ccnc4)c3)cc2)CC1 [Example 47],3.5 nM,73 nM,250 nM,
CC(=O)N1CCN(c2ccc(/C=C/c3cc(Cl)cc(C(O)(c4cccnc4)C(C)C)c3)cc2)CC1 (stereo not drawn) [Example 29],240 nM,3300 nM,370 nM,
CC(=O)N1CCN(c2ccc(/C=C/c3cc(F)cc(-c4ccncc4)c3)cc2)CC1,,,,AUCExtra [4]: 43.93%; DNAUC(0-inf) [4]: 823.1; AUC(0-inf) [4]: 14900 ng·h/mL; Cmax [4]: 1020 ng/mL; half-life [4]: 6 h; AUC [4]: 8230 ng·h/mL; MRT [4]: 5.56 h
O=S(=O)(c1cccnc1)N1CCN(c2ccc(/C=C/c3cc(Cl)cc(Cn4ccnc4)c3)cc2)CC1 [Example 21],17 nM,1380 nM,4 nM,
CCOC(=O)CNC(=O)N1CCN(c2ccc(/C=C/c3cc(Cl)cc(Cn4ccnc4)c3)cc2)CC1 [Example 20],41 nM,360 nM,27 nM,
Clc1cc(/C=C/c2ccc(N3CCN(CC4CC4)CC3)cc2)cc(Cn2ccnc2)c1 [Example 19],17 nM,585 nM,11 nM,

# Continued, in another order:
IC50 [1],IC50 [2],IC50 [3],Compound,other results
4 nM,1000 nM,,CC(C)S(=O)(=O)N1CCN(c2ccc(CCc3cc(F)cc(-c4ccncc4)c3)cc2)CC1 [Example 42],
11 nM,850 nM,3700 nM,Fc1cc(/C=C/c2ccc(-c3ccncc3)cc2)cc(-c2ccncc2)c1 [Example 25],
8 nM,1010 nM,1300 nM,CCOC(=O)CNC(=O)N1CCN(c2ccc(/C=C/c3cc(F)cc(-c4ccncc4)c3)cc2)CC1 [Example 34],
7 nM,3300 nM,220 nM,O=S(=O)(c1cccnc1)N1CCN(c2ccc(/C=C/c3cc(F)cc(-c4ccncc4)c3)cc2)CC1 [Example 33],
620 nM,,,CC(=O)N1CCN(c2ccc(/C=C/c3cc(Cl)cc(-c4cccnc4)c3)cc2)CC1 [Example 32],
135 nM,,140 nM,CC(=O)N1CCN(c2ccc(/C=C/c3cc(Cl)cc(COc4cccnc4)c3)cc2)CC1 [Example 26],
5 nM,316 nM,1500 nM,O=S(=O)(N1CCN(c2ccc(/C=C/c3cc(F)cc(-c4ccncc4)c3)cc2)CC1)C(F)(F)F [Example 39],
2 nM,1600 nM,330 nM,CCS(=O)(=O)N1CCN(c2ccc(CCc3cc(F)cc(-c4ccncc4)c3)cc2)CC1 [Example 44],
3 nM,1200 nM,,O=S(=O)(C1CC1)N1CCN(c2ccc(CCc3cc(F)cc(-c4ccncc4)c3)cc2)CC1 [Example 41],
5 nM,520 nM,200 nM,CCS(=O)(=O)N1CCN(c2ccc(/C=C/c3cc(F)cc(-c4ccncc4)c3)cc2)CC1 [Example 36],
5 nM,770 nM,54 nM,Fc1cc(/C=C/c2ccc(N3CCN(CC4CC4)CC3)cc2)cc(-c2ccncc2)c1 [Example 38],
16.5 nM,2800 nM,183 nM,O=S(=O)(N1CCN(c2ccc(CCc3cc(F)cc(-c4ccncc4)c3)cc2)CC1)C(F)(F)F [Example 45],
42 nM,2600 nM,,Fc1cc(/C=C/c2ccc(Br)cc2)cc(-c2ccncc2)c1 [Example 24],
